Measurements taken from US4317775A (Hoffmann-La Roche Inc., priority 1980, dated 1982).
Values after ≈ are worked out from the molar mass of the structure shown. Values joined by “and” are separate entries in the source; they are usually repeats but may differ in a detail not shown here. Equal entries are not always repeated. Structures can show the parent of a compound that is named as a salt. Where two headings read alike, the source gives them in different places.

Key:
[1] = system: Streptococcus pneumonia II; assay: In vitro activity (MIC/MBC), Streptococcus pneumonia II; assay type: cell-based; details: Streptococcus pneumoniae; for MBC: read-out: Minimum Inhibitory Concentration (MBC); for MIC: read-out: Minimum Inhibitory Concentration (MIC)
Excerpt: (§1) MIC is the Minimum Inhibitory Concentration. MBC is the Minimum Bactericidal Concentration.
(§2) Results reported in Table 3(a) are reported as MIC defined above and results reported in Table 3(b) are reported as MBC defined above.

[2] = system: K. pneumoniae; assay: In vivo activity against systemic infection in mice, K. pneumoniae; details: in mg/kg
Excerpt: (§3) The PD50 is the protective dose for 50% of the animals treated against a challenge organism.

[3] = system: Streptococcus pneumoniae I; assay: In vitro activity (MIC/MBC), Streptococcus pneumoniae I; assay type: cell-based; details: for MBC: read-out: Minimum Inhibitory Concentration (MBC)
Excerpt: as §1, §2

[4] = system: S. aureus; assay: In vivo activity against systemic infection in mice, S. aureus; details: in mg/kg
Excerpt: as §3

[5] = system: Klebsiella pneumoniae; assay: In vitro activity (MIC/MBC), Klebsiella pneumoniae; assay type: cell-based; details: for MIC: read-out: Minimum Inhibitory Concentration (MIC); for MBC: read-out: Minimum Inhibitory Concentration (MBC)
Excerpt: as §1, §2

[6] = system: P. aeruginosa; assay: In vivo activity against systemic infection in mice, P. aeruginosa
Excerpt: as §3

[7] = system: E. coli; assay: In vivo activity against systemic infection in mice, E. coli; details: in mg/kg
Excerpt: as §3

[8] = system: P. mirabilis; assay: In vivo activity against systemic infection in mice, P. mirabilis; details: in mg/kg
Excerpt: as §3

[9] = Acute toxicity in mice
[10] = system: Proteus vulgari; assay: In vitro activity (MIC/MBC), Proteus vulgari; assay type: cell-based
Excerpt: as §1, §2

[11] = system: Escherichia coli; assay: In vitro activity (MIC/MBC), Escherichia coli; assay type: cell-based; details: for MBC: read-out: Minimum Inhibitory Concentration (MBC)
Excerpt: as §1, §2

[12] = system: Salmonella typhosa; assay: In vitro activity (MIC/MBC), Salmonella typhosa; assay type: cell-based; details: Salmonella enterica; for MBC: read-out: Minimum Inhibitory Concentration (MBC), MBC, Salmonella typhosa; for MIC: read-out: Minimum Inhibitory Concentration (MIC), Salmonella typhosa
Excerpt: as §1, §2

[13] = system: Salmonella schottmuelleri; assay: In vitro activity (MIC/MBC), Salmonella schottmuelleri; assay type: cell-based; details: for MBC: Salmonella schottmuelleri, read-out: Minimum Inhibitory Concentration (MBC); for MIC: Salmonella, read-out: Minimum Inhibitory Concentration (MIC)
Excerpt: as §1, §2

[14] = system: S. pyogenes; assay: In vivo activity against systemic infection in mice, S. pyogenes
Excerpt: as §3

[15] = system: S. pneumoniae II; assay: In vivo activity against systemic infection in mice, S. pneumoniae II
Excerpt: as §3

[16] = system: Streptococcus pyogenes; assay: In vitro activity (MIC/MBC), Streptococcus pyogenes; assay type: cell-based; details: for MBC: read-out: Minimum Inhibitory Concentration (MBC); for MIC: read-out: Minimum Inhibitory Concentration (MIC)
Excerpt: as §1, §2

[17] = system: S. pneumoniae I; assay: In vivo activity against systemic infection in mice, S. pneumoniae I
Excerpt: as §3

[18] = in vivo; details: mouse
[19] = system: Staphylococcus aureus; assay: In vitro activity (MIC/MBC), Staphylococcus aureus; assay type: cell-based; details: for MBC: read-out: Minimum Inhibitory Concentration (MBC); for MIC: read-out: Minimum Inhibitory Concentration (MIC)
Excerpt: as §1, §2

[20] = system: S. schottmuelleri; assay: In vivo activity against systemic infection in mice, S. schottmuelleri
Excerpt: as §3

[21] = system: S. typhosa; assay: In vivo activity against systemic infection in mice, S. typhosa
Excerpt: as §3

[22] = Stability in aqueous solution (percent retention); assay type: physicochemical; details: for Percent Retention: 6 hrs + 5° C., 192 hrs
Procedure: The stability of the compound was determined in 0.9% saline solution, 5% aqueous dextrose solution and in water, both at room temperature and/or 5° C.

[23] = read-out: Minimum Inhibitory Concentration (MIC)
[24] = 5% dextrose in water, 2.10 mg/ml, RT
[25] = 5% dextrose in water, 2.20 mg/ml, 5° C.
[26] = 5% dextrose in water, 30 mg/ml, RT
[27] = 5% dextrose in water, 33 mg/ml, 5° C.
[28] = aqueous concentrate, 155 mg/ml, 5° C.

## CC1(C)S[C@@H]2[C@H](NC(=O)[C@H](N)c3ccc(O)cc3)C(=O)N2[C@H]1C(=O)O [Amoxicillin, amoxicillin, reference compound]
[1]
  MBC: 0.049 µg/mL (≈ 0.134 µM)
  MIC: 0.024 µg/mL (≈ 0.0657 µM)
[2]; subcutaneous
  PD50: 3.6 and 5 and 3.7
[3]
  MBC: 0.024 µg/mL (≈ 0.0657 µM)
[4]; oral
  PD50: 0.5 and 0.6
[4]; subcutaneous
  PD50: < 0.2
[5]
  MIC: 0.39 µg/mL (≈ 1.07 µM)
[6]; oral
  PD50: > 200 mg/kg
[6]; subcutaneous
  PD50: > 200 mg/kg
[7]; oral
  PD50: 14.1 and 18.5 and 19.3 and 13.1
[7]; subcutaneous
  PD50: 10 and 5.9 and 7.3 and 6.8
[8]; oral
  PD50: 1.8 and 1.1
[8]; subcutaneous
  PD50: < 0.5 and 0.6
[9]; mice, i.p.
  LD50: 3535 mg/kg and 3150 mg/kg
[9]; mouse, in vivo, ip, LD50, mice
  LD50: 3140 mg/kg
[9]; mouse, in vivo, po, LD50, mice
  LD50: > 10000 mg/kg
[9]; mouse, in vivo, sc, LD50, mice
  LD50: > 10000 mg/kg
[10]; MBC, read-out: Minimum Inhibitory Concentration (MBC)
  MBC: 0.78 µg/mL (≈ 2.13 µM)
[10]; [23]
  MIC: 1.56 µg/mL (≈ 4.27 µM)
[11]; [23]
  MIC: 3.12 µg/mL (≈ 8.55 µM)
[11]; read-out: Minimum Inhibitory Concentration (MIC), Escherichia coli
  MIC: 6.25 µg/mL (≈ 17.1 µM)
[12]
  MBC: 0.39 µg/mL (≈ 1.07 µM)
  MIC: 0.39 µg/mL (≈ 1.07 µM)
[13]
  MBC: 0.78 µg/mL (≈ 2.13 µM)
  MIC: 0.78 µg/mL (≈ 2.13 µM)

## CCC1CC(F)C(N(C2OC(CC)CC2F)[C@@H](C(=O)N[C@@H]2C(=O)N3[C@@H]2SC(C)(C)[C@@H]3C(=O)O)c2ccc(O)cc2)O1 (relative stereo) [Compound IV, {2S-[2α,5α,6β(S*)]}-6-{bis[5-ethyl-3-fluoro-2-tetrahydrofuranylamino-(4-hydrophenyl)-acetyl]amino}-3,3-dimethyl-7-oxo-4-thia-1-azabicyclo-[3.2.0]heptane-2-carboxylic acid sodium salt]
[14]; oral
  PD50: 6 mg/kg
[14]; subcutaneous
  PD50: 4.4 mg/kg
[1]
  MBC: 0.027 µg/mL
  MIC: 0.013 µg/mL
[2]; oral
  PD50: 4.8
[2]; subcutaneous
  PD50: 2.4
[15]; oral
  PD50: 0.7 mg/kg
[15]; subcutaneous
  PD50: 0.5 mg/kg
[4]; oral
  PD50: 1.2
[4]; subcutaneous
  PD50: 0.34
[5]
  MBC: 0.437 µg/mL
  MIC: 0.218 µg/mL
[7]; oral
  PD50: 22.1
[7]; subcutaneous
  PD50: 10.4
[16]
  MBC: > 0.218 µg/mL
  MIC: 0.027 µg/mL
[17]; oral
  PD50: 0.7 mg/kg
[17]; subcutaneous
  PD50: 0.9 mg/kg
[8]; oral
  PD50: 1.6
[8]; subcutaneous
  PD50: 0.4
[11]
  MBC: 3.5 µg/mL
[11]; [23]
  MIC: 3.5 µg/mL
[18]; ip
  LD50: 3520 mg/kg
[18]; po
  LD50: 3960 mg/kg
[18]; sc
  LD50: 2800 mg/kg
[19]
  MBC: 0.055 µg/mL
  MIC: 0.055 µg/mL

## CC1(C)S[C@@H]2[C@H](NC(=O)[C@@H](c3ccc(O)cc3)N(C3CCCCO3)C3CCCCO3)C(=O)N2[C@H]1C(=O)O (relative stereo) [Compound II, {2S-[2α,5α,6β(S*)]}-6-[bis(tetrahydro-2-H-pyran-2-yl)amino]{[(4-hydroxyphenyl)acetyl]amino}-3,3-dimethyl-7-oxo-4-thia-1-azabicyclo[3.2.0]heptane3-carboxylic acid sodium salt]
[14]; oral
  PD50: 1.9 mg/kg
[14]; subcutaneous
  PD50: 3.4 mg/kg
[20]; oral
  PD50: 1.9 mg/kg
[20]; subcutaneous
  PD50: 5.7 mg/kg
[2]; oral
  PD50: 8.6
[2]; subcutaneous
  PD50: 5.7
[3]
  MBC: 0.049 µg/mL
[3]; [23]
  MIC: 0.049 µg/mL
[21]; oral
  PD50: 3.6 mg/kg
[21]; subcutaneous
  PD50: 1.4 mg/kg
[4]; subcutaneous
  PD50: 0.5
[5]
  MBC: 0.98 µg/mL
  MIC: 0.09 µg/mL
[7]; oral
  PD50: 23
[7]; subcutaneous
  PD50: 18
[16]
  MBC: 6.31 µg/mL
  MIC: 0.39 µg/mL
[17]; oral
  PD50: 0.7 mg/kg
[17]; subcutaneous
  PD50: 0.7 mg/kg
[22]; 0.9% saline, 2.20 mg/ml, 5° C.
  remaining at 24 h: 100%
  remaining at 48 h: 100%
[22]; 0.9% saline, 2.25 mg/ml, RT
  remaining at 6 h: 96%
  Percent Retention: 98%
[22]; 0.9% saline, 2.30 mg/ml, RT
  remaining at 6 h: 96%
  remaining at 24 h: 91%
  remaining at 48 h: 84%
[22]; 0.9% saline, 29.1 mg/ml, RT
  remaining at 6 h: 97%
[22]; 0.9% saline, 0.2% solution, 5° C.
  time for which 90% of potency was maintained: ≥ 192 h
[22]; 0.9% saline, 0.2% solution, room temperature
  time for which 90% of potency was maintained: about 24 hours
[22]; 0.9% saline, 3% solution, 5° C.
  time for which 90% of potency was maintained: ≥ 192 h
[22]; 0.9% saline, 3% solution, room temperature
  time for which 90% of potency was maintained: less than 24 hours
[22]; 0.9% saline, 31. mg/ml, 5° C.
  remaining at 24 h: 100%
  remaining at 48 h: 100%
[22]; 0.9% saline, 34. mg/ml, RT
  remaining at 6 h: 97%
  remaining at 24 h: 85%
  remaining at 48 h: 76%
[22]; 5% Dextrose in Water, 2.10 mg/ml, RT
  Percent Retention: 73%
[22]; 5% Dextrose in Water, 31 mg/ml, RT
  Percent Retention: 81%
[22]; [24]
  remaining at 6 h: 95%
  remaining at 24 h: 89%
  remaining at 48 h: 71%
[22]; [25]
  remaining at 24 h: 95%
  remaining at 48 h: 91%
[22]; [26]
  remaining at 6 h: 96%
  remaining at 24 h: 92%
  remaining at 48 h: 83%
[22]; 5% dextrose in water, 31 mg/ml, RT
  remaining at 6 h: 100%
[22]; [27]
  remaining at 24 h: 94%
  remaining at 48 h: 84%
[22]; 5% dextrose in water, 0.2% solution, 5° C.
  time for which 90% of potency was maintained: 48 h
[22]; 5% dextrose in water, 0.2% solution, room temperature
  time for which 90% of potency was maintained: about 24 hours
[22]; 5% dextrose in water, 3% solution, 5° C.
  time for which 90% of potency was maintained: less than 48 hours
[22]; 5% dextrose in water, 3% solution, room temperature
  time for which 90% of potency was maintained: about 24 hours
[22]; [28]
  remaining at 24 h: 100%
  remaining at 48 h: 100%
[11]
  MBC: 3.94 µg/mL
[11]; [23]
  MIC: 3.94 µg/mL
[12]
  MBC: 0.12 µg/mL
  MIC: 0.12 µg/mL
[18]; ip
  LD50: 6310 mg/kg
[18]; po
  LD50: > 6310 mg/kg
[18]; sc
  LD50: 4460 mg/kg
[13]
  MBC: 0.98 µg/mL
  MIC: 0.98 µg/mL
[19]
  MBC: 0.098 µg/mL
  MIC: 0.098 µg/mL
